{"source": "patent US20110086767A1", "about": "“MUTANTS OF GLYCOSIDE HYDROLASES AND USES THEREOF FOR SYNTHESIZING COMPLEX OLIGOSACCHARIDES AND DISACCHARIDE INTERMEDIATES” (Institut Pasteur, priority 2008, published 2011)", "key": {"[1]": {"tested_on": "OC[C@H]1O[C@@](CO)(O[C@H]2O[C@H](CO)[C@@H](O)[C@H](O)[C@H]2O)[C@@H](O)[C@@H]1O", "assay": "Kinetic parameters towards sucrose donor, double mutant A289P-F290L", "assay_type": "biochemical, Neisseria polysaccharea", "conditions": "other: sucrose donor (0-500 mM), Eadie-Hofstee plot, 30° C., pH 7.0", "description": "(§1) The double mutants A289P-F290C, A289P-F290I and A289P-F290L were produced and purified, as previously described in Example 1-1. The protein content was determined by the Nanodrop ND-1000 spectrophotometer. These mutants were tested on sucrose alone or supplemented with α-D-GlcpNAc-OAll acceptor, and compared to wtAS and F290K. Assays were performed at 30° C. in 50 mM Tris-HCl buffer, pH=7.0.\n(§2) Enzyme assays were carried out in a total volume of 2 mL containing pure enzyme (0.073 mg, 0.153 mg and 0.092 mg when using A289P-F290C, A289P-F2901 and A289P-F290L, respectively).\n(§3) Kinetic studies of AS variants were performed in the presence of sucrose (0-500 mM). At regular time intervals (2-5 min), aliquots (200 μL) were removed, heated (95° C., 2 min) and centrifuged (18000 g, 5 min) All the samples were filtered on a 0.22 μm membrane and analyzed using HPLC material previously described. The initial rate of sucrose consumed, corresponding to the initial rate of fructose released, was expressed in mole of fructose released per minute and per gram of enzyme. The kinetic parameters kcat and Km were calculated using Eadie-Hofstee plot."}, "[2]": {"tested_on": "OC[C@H]1O[C@@](CO)(O[C@H]2O[C@H](CO)[C@@H](O)[C@H](O)[C@H]2O)[C@@H](O)[C@@H]1O", "assay": "Kinetic parameters towards sucrose donor, double mutant A289P-F290C", "assay_type": "biochemical, Neisseria polysaccharea", "conditions": "other: sucrose donor (0-500 mM), Eadie-Hofstee plot, 30° C., pH 7.0", "description": "as §1, §2, §3"}, "[3]": {"tested_on": "OC[C@H]1O[C@@](CO)(O[C@H]2O[C@H](CO)[C@@H](O)[C@H](O)[C@H]2O)[C@@H](O)[C@@H]1O", "assay": "Kinetic parameters towards sucrose donor, double mutant A289P-F290I", "assay_type": "biochemical, Neisseria polysaccharea", "conditions": "other: sucrose donor (0-500 mM), Eadie-Hofstee plot, 30° C., pH 7.0", "description": "as §1, §2, §3"}, "[4]": {"tested_on": "Neisseria polysaccharea amylosucrase 1G5A, wild type (wtAS, ASNPwt), SEQ ID NO: 13", "conditions": "sucrose donor, data from ref. 83; cited from earlier work"}, "[5]": {"target": "Neisseria polysaccharea amylosucrase 1G5A (parent SEQ ID NO: 13) variant A289P-F290I (Neisseria polysaccharea, UniProt Q9ZEU2, A297P/F298I/G545D)", "assay": "Kinetic parameters towards sucrose donor, double mutant A289P-F290I", "assay_type": "biochemical", "conditions": "sucrose donor (0-500 mM); Eadie-Hofstee plot; 30° C., pH 7.0", "description": "as §1, §2, §3"}, "[6]": {"target": "Neisseria polysaccharea amylosucrase 1G5A (parent SEQ ID NO: 13) variant A289P-F290L (Neisseria polysaccharea, UniProt Q9ZEU2, A297P/F298L/G545D)", "assay": "Kinetic parameters towards sucrose donor, double mutant A289P-F290L", "assay_type": "biochemical", "conditions": "sucrose donor (0-500 mM); Eadie-Hofstee plot; 30° C., pH 7.0", "description": "as §1, §2, §3"}, "[7]": {"target": "Neisseria polysaccharea amylosucrase 1G5A (parent SEQ ID NO: 13) variant F290K (Neisseria polysaccharea, UniProt Q9ZEU2, F298K/G545D)", "assay": "Kinetic parameters towards sucrose donor, variant F290K", "assay_type": "biochemical", "conditions": "F290K could not be saturated with sucrose", "description": "Production and purification of AS variants were performed as previously described (ref. 45). […] The enzymes were desalted by size exclusion chromatography using P6DG columns (GE Healthcare Biosciences) at +4° C. and stored in elution buffer (50 mM Tris-HCl, pH 7.0, 150 mM NaCl) at −80° C. The protein content was determined by micro-Bradford method, using bovine serum albumin as standard (ref. 56).\nAll assays were performed at 30° C. in 50 mM Tris buffer, pH=7.0. For the acceptor reactions, F290D, F290K and ASNPwt (1G5A) were tested on α-D-GlcpNAc-OAll.\nEnzyme assays were carried out in a total volume of 2 mL containing pure enzyme (0.115 mg and 0.106 mg when using ASNPwt and F290K, respectively). Catalytic efficiency (Eff=kcat/KM) of ASNPwt and F290K variant was determined with both sucrose (D=Donor) and α-D-GlcpNAc-OAll (A=Acceptor) as variable substrates. […] For each experiment, the reaction velocity corresponding to the acceptor glucosylation was determined by the formation of α-D-Glcp-(1→4)-α-D-GlcpNAc-OAll (called Vi(Dp2)), corresponding to the kinetics of the reaction of interest.\nInitial velocities were fitted to the Michaelis-Menten equation using Sigma-Plot. As saturation was not achieved with the mutant, efficiency was calculated by linear regression analysis of the velocity versus substrate concentration plot. […]"}, "[8]": {"target": "Neisseria polysaccharea amylosucrase 1G5A (parent SEQ ID NO: 13) variant A289P-F290C (Neisseria polysaccharea, UniProt Q9ZEU2, A297P/F298C/G545D)", "assay": "Kinetic parameters towards sucrose donor, double mutant A289P-F290C", "assay_type": "biochemical", "conditions": "sucrose donor (0-500 mM); Eadie-Hofstee plot; 30° C., pH 7.0", "description": "as §1, §2, §3"}}}
{"molecule": "Neisseria polysaccharea amylosucrase 1G5A (parent SEQ ID NO: 13) variant A289P-F290L (Neisseria polysaccharea; A297P/F298L/G545D)", "values": [{"measurement": "Km", "setting": "[1]", "result": 10.1, "unit": "mM"}]}
{"molecule": "Neisseria polysaccharea amylosucrase 1G5A (parent SEQ ID NO: 13) variant A289P-F290C (Neisseria polysaccharea; A297P/F298C/G545D)", "values": [{"measurement": "Km", "setting": "[2]", "result": 18.9, "unit": "mM"}]}
{"molecule": "Neisseria polysaccharea amylosucrase 1G5A (parent SEQ ID NO: 13) variant A289P-F290I (Neisseria polysaccharea; A297P/F298I/G545D)", "values": [{"measurement": "Km", "setting": "[3]", "result": 17.2, "unit": "mM"}]}
{"molecule": "OC[C@H]1O[C@@](CO)(O[C@H]2O[C@H](CO)[C@@H](O)[C@H](O)[C@H]2O)[C@@H](O)[C@@H]1O", "note": "[sucrose]", "values": [{"measurement": "Km", "setting": "[4]", "result": 50.2, "unit": "mM"}, {"measurement": "kcat", "setting": "[4]", "result": 1.3, "unit": "s⁻¹"}, {"measurement": "kcat", "setting": "[5]", "result": 1.1, "unit": "s⁻¹"}, {"measurement": "kcat", "setting": "[6]", "result": 2.1, "unit": "s⁻¹"}, {"measurement": "affinity for sucrose", "setting": "[7]", "result": "poor affinity for sucrose"}, {"measurement": "kcat", "setting": "[8]", "result": 2.8, "unit": "s⁻¹"}]}
